# From PMC11420776 (RSC Advances, 2024)
# What was measured:
# [1] = tested on: NCI-H23 (NSC lung cancer); test: NCI 60-cell one-dose antiproliferative screen; type: cell-based, human; conditions: one dose 10 μM
# MCF7 cells = test: Annexin V/PI dual staining apoptosis assay; type: cell-based, human; conditions: MCF7, 24 h, 4g at IC50 (0.56 μM)
# MDA-MB-435 (melanoma) = test: NCI 60-cell one-dose antiproliferative screen; type: cell-based, human; conditions: one dose 10 μM
# [2] = tested on: NCI-H226 (NSC lung cancer); test: NCI 60-cell one-dose antiproliferative screen; type: cell-based, human; conditions: one dose 10 μM
# p-PI3K = test: Phosphorylated PI3K ELISA in MCF7 cells; type: cell-based, human; conditions: 4g at its IC50 0.56 μM, compared to untreated MCF7 cells
# OVCAR-3 (ovarian cancer) = test: NCI 60-cell one-dose antiproliferative screen; type: cell-based, human; conditions: one dose 10 μM
# HOP-92 (NSC lung cancer) = test: NCI 60-cell one-dose antiproliferative screen; type: cell-based, human; conditions: one dose 10 μM
# OVCAR-8 (ovarian cancer) = test: NCI 60-cell one-dose antiproliferative screen; type: cell-based, human; conditions: one dose 10 μM
# Pim-1 kinase = Pim-1 kinase (Homo sapiens, UniProt P11309); test: Pim-1 kinase inhibition assay; type: biochemical
# Chain of Pim-1 kinase (P11309 whole entry): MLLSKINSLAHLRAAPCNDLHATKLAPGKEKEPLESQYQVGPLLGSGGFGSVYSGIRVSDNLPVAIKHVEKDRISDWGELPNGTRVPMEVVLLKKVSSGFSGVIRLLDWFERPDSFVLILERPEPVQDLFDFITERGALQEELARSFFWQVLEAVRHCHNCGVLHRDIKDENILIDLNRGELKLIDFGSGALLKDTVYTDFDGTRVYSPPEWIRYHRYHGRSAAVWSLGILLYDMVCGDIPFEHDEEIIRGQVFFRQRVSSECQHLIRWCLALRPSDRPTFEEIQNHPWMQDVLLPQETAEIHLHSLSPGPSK
# SK-MEL-2 (melanoma) = test: NCI 60-cell one-dose antiproliferative screen; type: cell-based, human; conditions: one dose 10 μM
# DU-145 (prostate cancer) = test: NCI 60-cell one-dose antiproliferative screen; type: cell-based, human; conditions: one dose 10 μM
# SF-268 (CNS cancer) = test: NCI 60-cell one-dose antiproliferative screen; type: cell-based, human; conditions: one dose 10 μM
# c-Met kinase = c-Met kinase (Homo sapiens, UniProt P08581); test: c-Met kinase inhibition assay; type: biochemical
# Chain of c-Met kinase (P08581 25-1390): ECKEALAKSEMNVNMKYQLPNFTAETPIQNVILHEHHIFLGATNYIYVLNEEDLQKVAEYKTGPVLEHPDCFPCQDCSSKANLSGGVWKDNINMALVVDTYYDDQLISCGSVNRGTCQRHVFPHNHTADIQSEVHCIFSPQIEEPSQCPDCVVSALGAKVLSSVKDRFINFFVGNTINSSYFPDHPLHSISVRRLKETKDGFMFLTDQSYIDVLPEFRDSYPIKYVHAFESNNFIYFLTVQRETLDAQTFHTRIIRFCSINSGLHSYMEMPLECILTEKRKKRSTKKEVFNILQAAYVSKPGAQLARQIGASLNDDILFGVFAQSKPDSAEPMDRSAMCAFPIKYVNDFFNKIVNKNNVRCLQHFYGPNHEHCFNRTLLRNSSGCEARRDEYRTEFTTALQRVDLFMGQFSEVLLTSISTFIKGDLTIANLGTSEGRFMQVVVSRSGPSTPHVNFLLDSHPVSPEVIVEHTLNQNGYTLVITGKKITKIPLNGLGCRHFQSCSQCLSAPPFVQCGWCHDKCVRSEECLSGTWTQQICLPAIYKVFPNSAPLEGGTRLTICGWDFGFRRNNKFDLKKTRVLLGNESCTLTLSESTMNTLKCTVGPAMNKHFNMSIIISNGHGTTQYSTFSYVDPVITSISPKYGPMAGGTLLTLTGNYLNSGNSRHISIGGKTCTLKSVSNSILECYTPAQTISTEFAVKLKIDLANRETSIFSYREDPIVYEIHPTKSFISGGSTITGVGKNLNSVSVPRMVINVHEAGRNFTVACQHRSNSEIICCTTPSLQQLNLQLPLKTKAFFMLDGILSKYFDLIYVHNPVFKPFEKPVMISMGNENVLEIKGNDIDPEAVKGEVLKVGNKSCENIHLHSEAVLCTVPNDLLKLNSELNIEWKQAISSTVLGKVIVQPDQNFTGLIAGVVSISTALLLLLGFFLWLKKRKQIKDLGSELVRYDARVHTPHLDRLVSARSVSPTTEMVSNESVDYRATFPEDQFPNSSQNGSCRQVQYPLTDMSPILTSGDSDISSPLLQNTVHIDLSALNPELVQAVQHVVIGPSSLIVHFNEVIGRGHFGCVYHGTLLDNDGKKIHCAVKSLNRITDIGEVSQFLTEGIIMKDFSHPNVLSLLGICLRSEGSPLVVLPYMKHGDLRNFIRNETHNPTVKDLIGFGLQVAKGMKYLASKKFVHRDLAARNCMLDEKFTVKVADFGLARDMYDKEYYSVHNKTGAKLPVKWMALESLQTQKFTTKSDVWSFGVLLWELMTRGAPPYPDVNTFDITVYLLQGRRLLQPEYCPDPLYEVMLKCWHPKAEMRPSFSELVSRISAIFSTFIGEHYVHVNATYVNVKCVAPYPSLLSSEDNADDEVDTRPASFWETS
# [3] = tested on: NCI/ADR-RES (ovarian cancer); test: NCI 60-cell one-dose antiproliferative screen; type: cell-based, human; conditions: one dose 10 μM
compound,measurement,setting,value
"COc1ccc(-c2nnc3ccc(NN=Cc4ccc(O)cc4)nn23)cc1 [Compound 4g, 4-((2-(3-(4-Methoxyphenyl)-[1,2,4]triazolo[4,3-b]pyridazin-6-yl)hydrazono)methyl)phenol]",GI%,[1],67.47%
same,Apoptosis Early,MCF7 cells,25.16%
same,Apoptosis Late,MCF7 cells,18.13%
same,Necrosis,MCF7 cells,5.27%
same,increase in the percentage of total apoptosis,MCF7 cells; compared to the control,29.61 fold
same,GI%,MDA-MB-435 (melanoma),54.20%
same,GI%,[2],22.48%
same,inhibition of PI3K phosphorylation,p-PI3K,55.5%
same,GI%,OVCAR-3 (ovarian cancer),62.40%
same,GI%,HOP-92 (NSC lung cancer),68.67%
same,GI%,OVCAR-8 (ovarian cancer),54.60%
same,IC50,Pim-1 kinase,283 ± 10 nM
same,GI%,SK-MEL-2 (melanoma),26.79%
same,GI%,DU-145 (prostate cancer),48.11%
same,GI%,SF-268 (CNS cancer),64.19%
same,IC50,c-Met kinase,163 ± 10 nM
same,GI%,[3],73.98%
